{
  "source": "patent US20240114940A1",
  "about": "“SACCHARIDE COMPOSITIONS HAVING SUCROSE-LIKE CHARACTERISTICS AND RELATED METHODS” (priority 2021, published 2024)",
  "type_in_all_cases": "physicochemical",
  "key": {"[1]": {"assay": "Breakdown products by GCMS after Maillard reaction in the presence of Histidine", "conditions": "160° C.; for 2-Butanone concentration / 2-Propanone, 1-hydroxy- concentration / Diacetyl (2,3-Butanedione) concentration: Carbonyls/ketones; for Furan, 2-methyl- concentration / Furfural concentration: Furans; for Pyrazine, 2,5-diethyl- concentration / Pyrazine, 2,5-dimethyl- concentration / Pyrazine, 2-ethyl-5-methyl- concentration / Pyrazine, ethyl- concentration / Pyrazine, methyl- concentration: Pyrazines", "experimental": "(§1) Controls were prepared addition of 1 mL of pH 7 buffer to the amino acids. The samples were rapidly heated to 160° C. and held at this temperature for 10 min. Samples were rapidly cooled afterwards, and absorbance at 500 nm was measured for each reaction mixture. Volatiles were analysed using gas chromatography mass spectrometry (GCMS) analysis. An Agilent Technologies 5975B Inert XL MSD gas chromatography, single quadruple mass spectrometer was used for analysis of volatiles. Samples were added to separate GCMS headspace vials and weighed. 0.03 g of 0.01% 3-heptanone in water was added and the vial was sealed for GCMS solid phase micro extraction (SPME) analysis. Samples were analysed in a randomized order. Samples were incubated and agitated at 250 RPM, at 60° C. for 15 min prior to SPME analysis of volatiles. The SPME fibre (50/30 DVB/CAR/PDMS, 23 Ga) extracted for 10 min, then thermally desorbed at 250° C. for 5 min. A 30 m×0.25 mm×0.25 μm HP-5MS column was used (Phenomenex, UK). Oven temperature settings: 31° C.-5 min, 5° C./min to 150° C., 30° C./min to 240° C. Inlet settings: 250° C., pressure 10.4 psi, flow 11.2 mL/min, split ratio 7:1. MS operated in full scan mode from 40 to 400 m/z with a scan time of 0.2s. The peak area of the aroma compounds was compared to the peak of the internal standard 3-heptanone and corrected for the weight of the sample.\n(§2) The concentration of the different classes of Maillard reaction breakdown products is presented in Tables 9B-E. The same data as Tables 9B-E is also presented in FIG. 27. Concentrations are in parts per billion of the difference non-enzymatic breakdown products for the different compositions at 160° C. analysed by GCMS."}, "[2]": {"assay": "Breakdown products by GCMS after Maillard reaction in the presence of Leucine", "conditions": "Maillard reaction in the presence of Leucine, 160° C., GCMS; for 2-Butanone concentration / 2-Propanone, 1-hydroxy- concentration / Diacetyl (2,3-Butanedione) concentration: Carbonyls/ketones; for Furan, 2-methyl- concentration / Furfural concentration: Furans; for Pyrazine, 2,5-diethyl- concentration / Pyrazine, 2,5-dimethyl- concentration / Pyrazine, 2-ethyl-5-methyl- concentration / Pyrazine, ethyl- concentration / Pyrazine, methyl- concentration: Pyrazines; for Isovaleraldehyde (Butanal, 3-methyl-) concentration: Strecker aldehydes", "experimental": "as §1, §2"}, "[3]": {"assay": "Breakdown products by GCMS after Maillard reaction in the presence of Tryptophan", "conditions": "with Tryptophan, pH 7, 160° C., 10 min", "experimental": "as §1, §2"}, "[4]": {"assay": "Breakdown products by GCMS without an amino acid present", "conditions": "pH 7, 160° C., 10 min", "experimental": "as §1, §2"}},
  "data": [
    {"smiles": "N[C@@H](Cc1c[nH]cn1)C(=O)O", "note": "[Histidine]", "values": [
      {"measurement": "2-Butanone concentration", "setting": "[1]", "result": 1.25, "unit": "ppb"},
      {"measurement": "2-Propanone, 1-hydroxy- concentration", "setting": "[1]", "result": 0, "unit": "ppb"},
      {"measurement": "Diacetyl (2,3-Butanedione) concentration", "setting": "[1]", "result": 2.2, "unit": "ppb"},
      {"measurement": "Furan, 2-methyl- concentration", "setting": "[1]", "result": 0, "unit": "ppb"},
      {"measurement": "Furfural concentration", "setting": "[1]", "result": 0.02, "unit": "ppb"},
      {"measurement": "Pyrazine, 2,5-diethyl- concentration", "setting": "[1]", "result": 0, "unit": "ppb"},
      {"measurement": "Pyrazine, 2,5-dimethyl- concentration", "setting": "[1]", "result": 0, "unit": "ppb"},
      {"measurement": "Pyrazine, 2-ethyl-5-methyl- concentration", "setting": "[1]", "result": 0.38, "unit": "ppb"},
      {"measurement": "Pyrazine, ethyl- concentration", "setting": "[1]", "result": 0, "unit": "ppb"},
      {"measurement": "Pyrazine, methyl- concentration", "setting": "[1]", "result": 0, "unit": "ppb"}
    ]},
    {"smiles": "CC(C)C[C@H](N)C(=O)O", "note": "[Leucine]", "values": [
      {"measurement": "2-Butanone concentration", "setting": "[2]", "result": 2.04, "unit": "ppb"},
      {"measurement": "2-Propanone, 1-hydroxy- concentration", "setting": "[2]", "result": 0.23, "unit": "ppb"},
      {"measurement": "Diacetyl (2,3-Butanedione) concentration", "setting": "[2]", "result": 3.75, "unit": "ppb"},
      {"measurement": "Furan, 2-methyl- concentration", "setting": "[2]", "result": 0, "unit": "ppb"},
      {"measurement": "Furfural concentration", "setting": "[2]", "result": 0.03, "unit": "ppb"},
      {"measurement": "Pyrazine, 2,5-diethyl- concentration", "setting": "[2]", "result": 0, "unit": "ppb"},
      {"measurement": "Pyrazine, 2,5-dimethyl- concentration", "setting": "[2]", "result": 0, "unit": "ppb"},
      {"measurement": "Pyrazine, 2-ethyl-5-methyl- concentration", "setting": "[2]", "result": 1, "unit": "ppb"},
      {"measurement": "Pyrazine, ethyl- concentration", "setting": "[2]", "result": 0, "unit": "ppb"},
      {"measurement": "Pyrazine, methyl- concentration", "setting": "[2]", "result": 0, "unit": "ppb"},
      {"measurement": "Isovaleraldehyde (Butanal, 3-methyl-) concentration", "setting": "[2]", "result": 1.56, "unit": "ppb"}
    ]},
    {"smiles": "N[C@@H](Cc1c[nH]c2ccccc12)C(=O)O", "note": "[Tryptophan]", "values": [
      {"measurement": "Concentration of 2-Butanone", "setting": "[3]", "result": 0.56, "unit": "ppb"},
      {"measurement": "Concentration of 2-Propanone, 1-hydroxy-", "setting": "[3]", "result": 0.05, "unit": "ppb"},
      {"measurement": "Concentration of Diacetyl (2,3-Butanedione)", "setting": "[3]", "result": 2.08, "unit": "ppb"},
      {"measurement": "Concentration of Furan, 2-methyl-", "setting": "[3]", "result": 0, "unit": "ppb"},
      {"measurement": "Concentration of Furan, 2-pentyl-", "setting": "[3]", "result": 0.03, "unit": "ppb"},
      {"measurement": "Concentration of Furfural", "setting": "[3]", "result": 0.02, "unit": "ppb"},
      {"measurement": "Concentration of Indole", "setting": "[3]", "result": 8.55, "unit": "ppb"},
      {"measurement": "Concentration of Pyrazine, 2,5-diethyl-", "setting": "[3]", "result": 0, "unit": "ppb"},
      {"measurement": "Concentration of Pyrazine, 2,5-dimethyl-", "setting": "[3]", "result": 0, "unit": "ppb"},
      {"measurement": "Concentration of Pyrazine, 2-ethyl-5-methyl-", "setting": "[3]", "result": 0.26, "unit": "ppb"},
      {"measurement": "Concentration of Pyrazine, ethyl-", "setting": "[3]", "result": 0, "unit": "ppb"},
      {"measurement": "Concentration of Pyrazine, methyl-", "setting": "[3]", "result": 0, "unit": "ppb"}
    ]},
    {"smiles": "O=C[C@H](O)[C@@H](O)[C@H](O)CO", "note": "[Xylose]", "values": [
      {"measurement": "Concentration of 2-Butanone", "setting": "[3]", "result": 70.81, "unit": "ppb"},
      {"measurement": "Concentration of 2-Propanone, 1-hydroxy-", "setting": "[3]", "result": 227.11, "unit": "ppb"},
      {"measurement": "Concentration of Diacetyl (2,3-Butanedione)", "setting": "[3]", "result": 55.57, "unit": "ppb"},
      {"measurement": "Concentration of Furan, 2-methyl-", "setting": "[3]", "result": 52.32, "unit": "ppb"},
      {"measurement": "Concentration of Furan, 2-pentyl-", "setting": "[3]", "result": 6.28, "unit": "ppb"},
      {"measurement": "Concentration of Furfural", "setting": "[3]", "result": 0.15, "unit": "ppb"},
      {"measurement": "Concentration of Indole", "setting": "[3]", "result": 53.49, "unit": "ppb"},
      {"measurement": "Concentration of Pyrazine, 2,5-diethyl-", "setting": "[3]", "result": 25, "unit": "ppb"},
      {"measurement": "Concentration of Pyrazine, 2,5-dimethyl-", "setting": "[3]", "result": 751.39, "unit": "ppb"},
      {"measurement": "Concentration of Pyrazine, 2-ethyl-5-methyl-", "setting": "[3]", "result": 394.72, "unit": "ppb"},
      {"measurement": "Concentration of Pyrazine, ethyl-", "setting": "[3]", "result": 13.61, "unit": "ppb"},
      {"measurement": "Concentration of Pyrazine, methyl-", "setting": "[3]", "result": 59.72, "unit": "ppb"},
      {"measurement": "2-Butanone concentration", "setting": "[2]", "result": 212.85, "unit": "ppb"},
      {"measurement": "2-Propanone, 1-hydroxy- concentration", "setting": "[2]", "result": 647.73, "unit": "ppb"},
      {"measurement": "Diacetyl (2,3-Butanedione) concentration", "setting": "[2]", "result": 458.75, "unit": "ppb"},
      {"measurement": "Furan, 2-methyl- concentration", "setting": "[2]", "result": 170.12, "unit": "ppb"},
      {"measurement": "Furfural concentration", "setting": "[2]", "result": 118.44, "unit": "ppb"},
      {"measurement": "Pyrazine, 2,5-diethyl- concentration", "setting": "[2]", "result": 84.11, "unit": "ppb"},
      {"measurement": "Pyrazine, 2,5-dimethyl- concentration", "setting": "[2]", "result": 2510.13, "unit": "ppb"},
      {"measurement": "Pyrazine, 2-ethyl-5-methyl- concentration", "setting": "[2]", "result": 1146.75, "unit": "ppb"},
      {"measurement": "Pyrazine, ethyl- concentration", "setting": "[2]", "result": 59.9, "unit": "ppb"},
      {"measurement": "Pyrazine, methyl- concentration", "setting": "[2]", "result": 496.33, "unit": "ppb"},
      {"measurement": "Isovaleraldehyde (Butanal, 3-methyl-) concentration", "setting": "[2]", "result": 15873.58, "unit": "ppb"},
      {"measurement": "2-Butanone concentration", "setting": "[1]", "result": 53.5, "unit": "ppb"},
      {"measurement": "2-Propanone, 1-hydroxy- concentration", "setting": "[1]", "result": 196.75, "unit": "ppb"},
      {"measurement": "Diacetyl (2,3-Butanedione) concentration", "setting": "[1]", "result": 32.61, "unit": "ppb"},
      {"measurement": "Furan, 2-methyl- concentration", "setting": "[1]", "result": 28.4, "unit": "ppb"},
      {"measurement": "Furfural concentration", "setting": "[1]", "result": 15.26, "unit": "ppb"},
      {"measurement": "Pyrazine, 2,5-diethyl- concentration", "setting": "[1]", "result": 17.88, "unit": "ppb"},
      {"measurement": "Pyrazine, 2,5-dimethyl- concentration", "setting": "[1]", "result": 587.06, "unit": "ppb"},
      {"measurement": "Pyrazine, 2-ethyl-5-methyl- concentration", "setting": "[1]", "result": 288.64, "unit": "ppb"},
      {"measurement": "Pyrazine, ethyl- concentration", "setting": "[1]", "result": 4.48, "unit": "ppb"},
      {"measurement": "Pyrazine, methyl- concentration", "setting": "[1]", "result": 5.22, "unit": "ppb"},
      {"measurement": "Concentration of 2-Butanone", "setting": "[4]", "result": 75.3, "unit": "ppb"},
      {"measurement": "Concentration of 2-Propanone, 1-hydroxy-", "setting": "[4]", "result": 196.36, "unit": "ppb"},
      {"measurement": "Concentration of 5-methyl furfural", "setting": "[4]", "result": 27.19, "unit": "ppb"},
      {"measurement": "Concentration of Diacetyl (2,3-Butanedione)", "setting": "[4]", "result": 267.18, "unit": "ppb"},
      {"measurement": "Concentration of Furan, 2-methyl-", "setting": "[4]", "result": 7.83, "unit": "ppb"},
      {"measurement": "Concentration of Furfural", "setting": "[4]", "result": 65.56, "unit": "ppb"}
    ]}
  ]
}
